Source: PMC11882969 (Nature Communications, 2025)
Where “and” joins values, the source holds several entries; their conditions need not be identical. Identical values can stand only once.

What was measured:
[1] = biological target: hCB1 (Homo sapiens, UniProt P21554); assay: bioSensAll ebBRET signaling profiling, hCB1; format: cell-based; set-up: host or cells: HEK293SL cells, transient PEI transfection; details: for Gi1 hCB1 response: Gi1 biosensor; for Gi1 hCB1 / GoB hCB1: single replicate values, FigS6a
Chain of hCB1 (P21554 whole entry): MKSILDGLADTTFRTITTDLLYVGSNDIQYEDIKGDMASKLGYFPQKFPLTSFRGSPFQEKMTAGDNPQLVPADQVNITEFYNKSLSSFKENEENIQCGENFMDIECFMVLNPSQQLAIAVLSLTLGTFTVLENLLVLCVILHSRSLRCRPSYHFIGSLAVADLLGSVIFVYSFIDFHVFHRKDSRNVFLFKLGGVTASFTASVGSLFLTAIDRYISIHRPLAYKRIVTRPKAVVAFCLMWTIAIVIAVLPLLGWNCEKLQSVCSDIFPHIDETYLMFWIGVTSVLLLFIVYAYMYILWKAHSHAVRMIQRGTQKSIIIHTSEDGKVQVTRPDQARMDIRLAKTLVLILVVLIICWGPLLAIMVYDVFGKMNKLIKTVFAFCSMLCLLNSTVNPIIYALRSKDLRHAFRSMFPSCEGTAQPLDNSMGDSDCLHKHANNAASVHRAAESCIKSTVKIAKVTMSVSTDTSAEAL

[2] = biological target: CB1 (rCB1) (Rattus norvegicus, UniProt P20272); assay: Radioligand competition binding, [3H]-CP-55,940, rat brain membranes; details: for pKi [95% CI]: rCB1; for Ki: read-out: Ki [95% CI], rCB1, [3H]-CP-55,940
Chain of CB1 (rCB1) (P20272 whole entry): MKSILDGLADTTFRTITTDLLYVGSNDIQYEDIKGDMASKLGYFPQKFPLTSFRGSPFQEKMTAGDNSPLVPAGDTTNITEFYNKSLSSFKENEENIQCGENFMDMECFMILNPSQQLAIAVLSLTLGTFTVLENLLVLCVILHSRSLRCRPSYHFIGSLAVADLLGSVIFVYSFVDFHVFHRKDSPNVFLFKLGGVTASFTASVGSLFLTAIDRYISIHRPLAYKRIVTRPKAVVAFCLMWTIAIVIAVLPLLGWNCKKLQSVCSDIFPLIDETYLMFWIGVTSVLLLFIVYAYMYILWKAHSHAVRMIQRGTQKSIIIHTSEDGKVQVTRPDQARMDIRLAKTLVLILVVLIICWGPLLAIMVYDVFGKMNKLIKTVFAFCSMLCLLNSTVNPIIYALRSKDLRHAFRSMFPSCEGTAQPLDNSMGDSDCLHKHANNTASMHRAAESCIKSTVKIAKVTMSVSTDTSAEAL

Cc1cc(C(=O)N(C)C(c2ccco2)c2ccco2)nn1-c1cccc(C(F)(F)F)c1 [‘4388]
Gi1 hCB1 response ([1]; Log [Compound] (M) -4.22186): -4.018 | Gi1 hCB1 response ([1]; Log [Compound] (M) -4.63927): -19.2595 | Gi1 hCB1 response ([1]; Log [Compound] (M) -5.05788): -23.1763 | Gi1 hCB1 response ([1]; Log [Compound] (M) -5.47381): 10.5525 | Gi1 hCB1 response ([1]; Log [Compound] (M) -5.89285): -11.6498 | Gi1 hCB1 response ([1]; Log [Compound] (M) -6.31878): -15.6337 | Gi1 hCB1 response ([1]; Log [Compound] (M) -6.72585): 2.07 | Gi1 hCB1 response ([1]; Log [Compound] (M) -7.14267): 5.942 | Gi1 hCB1 response ([1]; Log [Compound] (M) -7.55284): 4.107 | Gi1 hCB1 response ([1]; Log [Compound] (M) -8): 5.7853 | Gi1 hCB1 response ([1]; Log [Compound] (M) -8.22186): 57.4864 | Gi1 hCB1 response ([1]; Log [Compound] (M) -8.39794): -7.509 | Gi1 hCB1 response ([1]; Log [Compound] (M) -8.68787): 16.0808 | Gi1 hCB1 response ([1]; Log [Compound] (M) -9.15521): -3.346 | Gi1 hCB1 response ([1]; Log [Compound] (M) -9.61989): -13.3061 | Gi1 hCB1 response ([1]; Log [Compound] (M) -10.0969): -9.456 | Gi1 hCB1 response ([1]; Log [Compound] (M) -10.5529): 6.658 | Gi1 hCB1 response ([1]; Log [Compound] (M) -11.0177): 9.836 | Gi1 hCB1 response ([1]; Log [Compound] (M) -11.4949): 13.8426 | Gi1 hCB1 response ([1]; Log [Compound] (M) -11.9208): 7.912 | Gi1 hCB1 response ([1]; Log [Compound] (M) -12.3979): 17.8713 | Gi1 hCB1 response ([1]; Log [Compound] (M) -12.8861): 0.7271 | Gi1 hCB1 response ([1]; Log [Compound] (M) -13, individual replicate values): -6.01 and 6.502 | Gi1 hCB1 ([1]; Log [Compound] (M) -4.22186): -1.453 | GoB hCB1 ([1]; Log [Compound] (M) -4.22186): -21.3927 | Gi1 hCB1 ([1]; Log [Compound] (M) -4.63927): -2.47 | GoB hCB1 ([1]; Log [Compound] (M) -4.63927): -23.227 | Gi1 hCB1 ([1]; Log [Compound] (M) -5.05788): -11.3501 | GoB hCB1 ([1]; Log [Compound] (M) -5.05788): -26.2122 | Gi1 hCB1 ([1]; Log [Compound] (M) -5.47381): -11.1959 | GoB hCB1 ([1]; Log [Compound] (M) -5.47381): -26.6258 | Gi1 hCB1 ([1]; Log [Compound] (M) -5.89285): -9.5 | GoB hCB1 ([1]; Log [Compound] (M) -5.89285): -20.8711 | Gi1 hCB1 ([1]; Log [Compound] (M) -6.31878): -8.93 | GoB hCB1 ([1]; Log [Compound] (M) -6.31878): -17.76 | Gi1 hCB1 ([1]; Log [Compound] (M) -6.72585): -4.983 | GoB hCB1 ([1]; Log [Compound] (M) -6.72585): -9.883 | Gi1 hCB1 ([1]; Log [Compound] (M) -7.14267): 0.7674 | GoB hCB1 ([1]; Log [Compound] (M) -7.14267): -5.046 | Gi1 hCB1 ([1]; Log [Compound] (M) -7.55284): 2.355 | GoB hCB1 ([1]; Log [Compound] (M) -7.55284): 0.4032 | Gi1 hCB1 ([1]; Log [Compound] (M) -8): 1.985 | GoB hCB1 ([1]; Log [Compound] (M) -8): -1.107 | Gi1 hCB1 ([1]; Log [Compound] (M) -8.22186): 1.292 | GoB hCB1 ([1]; Log [Compound] (M) -8.22186): -1.989 | Gi1 hCB1 ([1]; Log [Compound] (M) -8.39794): 1.677 | GoB hCB1 ([1]; Log [Compound] (M) -8.39794): 0.9427 | Gi1 hCB1 ([1]; Log [Compound] (M) -8.68787): 1.23 | GoB hCB1 ([1]; Log [Compound] (M) -8.68787): -0.8377 | Gi1 hCB1 ([1]; Log [Compound] (M) -9.15521): 0.9215 | GoB hCB1 ([1]; Log [Compound] (M) -9.15521): -0.8737 | Gi1 hCB1 ([1]; Log [Compound] (M) -9.61989): 0.08902 | GoB hCB1 ([1]; Log [Compound] (M) -9.61989): -0.7118 | Gi1 hCB1 ([1]; Log [Compound] (M) -10.0969): 1.816 | GoB hCB1 ([1]; Log [Compound] (M) -10.0969): -0.7298 | Gi1 hCB1 ([1]; Log [Compound] (M) -10.5529): 1.122 | GoB hCB1 ([1]; Log [Compound] (M) -10.5529): -2.258 | Gi1 hCB1 ([1]; Log [Compound] (M) -11.0177): 1.6 | GoB hCB1 ([1]; Log [Compound] (M) -11.0177): 0.6549 | Gi1 hCB1 ([1]; Log [Compound] (M) -11.4949): 2.232 | GoB hCB1 ([1]; Log [Compound] (M) -11.4949): -1.305 | Gi1 hCB1 ([1]; Log [Compound] (M) -11.9208): 2.186 | GoB hCB1 ([1]; Log [Compound] (M) -11.9208): -1.089 | Gi1 hCB1 ([1]; Log [Compound] (M) -12.3979): 1.137 | GoB hCB1 ([1]; Log [Compound] (M) -12.3979): -1.305 | Gi1 hCB1 ([1]; Log [Compound] (M) -12.8861): 1.415 | GoB hCB1 ([1]; Log [Compound] (M) -12.8861): -0.9816 | Gi1 hCB1 ([1]; Log [Compound] (M) -13): 2.1086 and 2.987 | GoB hCB1 ([1]; Log [Compound] (M) -13): 0.8707 and 0.2953 | pKi [95% CI] [2]: 5.9 [5.7 – 6.0] | Ki [2]: 1360 nM

COC(=O)[C@H](c1cccs1)N(C)C(=O)c1cc(C)n(-c2cccc(C(F)(F)F)c2)n1 [‘1066]
pKi [95% CI] [2]: 5.8 [5.4 – 6.1] | Ki [2]: 1720 nM
